Measured values: PubChem BioAssay (NCI)
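The compound was tested at five concentrations on cells cultured in 96-well plates, with a 48-hour exposure period. At the TGI there is no net growth.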

Legend:
Experiment in all cases: NCI-60 cell line screen, 48 h
MALME-3M melanoma = tested on: MALME-3M melanoma
CCRF-CEM leukemia = tested on: CCRF-CEM leukemia
PC-3 prostate = tested on: PC-3 prostate
HCT-116 colon = tested on: HCT-116 colon
M14 melanoma = tested on: M14 melanoma
U251 CNS = tested on: U251 CNS
MDA-N = tested on: MDA-N
SF-268 CNS = tested on: SF-268 CNS
HOP-92 NSCLC = tested on: HOP-92 NSCLC
HT29 colon = tested on: HT29 colon
COLO 205 colon = tested on: COLO 205 colon
UACC-257 melanoma = tested on: UACC-257 melanoma
OVCAR-4 ovarian = tested on: OVCAR-4 ovarian
MDA-MB-231 breast = tested on: MDA-MB-231 breast
HCC-2998 colon = tested on: HCC-2998 colon
SW-620 colon = tested on: SW-620 colon
HL-60(TB) leukemia = tested on: HL-60(TB) leukemia
LOX IMVI melanoma = tested on: LOX IMVI melanoma
NCI/ADR-RES ovarian = tested on: NCI/ADR-RES ovarian
TK-10 renal = tested on: TK-10 renal
SN12C renal = tested on: SN12C renal
OVCAR-3 ovarian = tested on: OVCAR-3 ovarian
SNB-19 CNS = tested on: SNB-19 CNS
T-47D breast = tested on: T-47D breast
A498 renal = tested on: A498 renal
EKVX NSCLC = tested on: EKVX NSCLC
ACHN renal = tested on: ACHN renal
RPMI-8226 leukemia = tested on: RPMI-8226 leukemia
BT-549 breast = tested on: BT-549 breast
UO-31 renal = tested on: UO-31 renal
NCI-H23 lung = tested on: NCI-H23 lung
786-0 renal = tested on: 786-0 renal
HOP-62 NSCLC = tested on: HOP-62 NSCLC
SF-295 CNS = tested on: SF-295 CNS
NCI-H522 lung = tested on: NCI-H522 lung
OVCAR-8 ovarian = tested on: OVCAR-8 ovarian
MCF7 breast = tested on: MCF7 breast
SNB-75 CNS = tested on: SNB-75 CNS
IGROV1 ovarian = tested on: IGROV1 ovarian
MOLT-4 leukemia = tested on: MOLT-4 leukemia
SK-MEL-28 melanoma = tested on: SK-MEL-28 melanoma
CAKI-1 renal = tested on: CAKI-1 renal
HCT-15 colon = tested on: HCT-15 colon
NCI-H460 lung = tested on: NCI-H460 lung
K-562 leukemia = tested on: K-562 leukemia
SR leukemia = tested on: SR leukemia
KM12 colon = tested on: KM12 colon
MDA-MB-435 = tested on: MDA-MB-435
OVCAR-5 ovarian = tested on: OVCAR-5 ovarian
SK-MEL-2 melanoma = tested on: SK-MEL-2 melanoma
A549 NSCLC = tested on: A549 NSCLC
HS 578T breast = tested on: HS 578T breast
UACC-62 melanoma = tested on: UACC-62 melanoma
SF-539 CNS = tested on: SF-539 CNS
SK-OV-3 ovarian = tested on: SK-OV-3 ovarian
SK-MEL-5 melanoma = tested on: SK-MEL-5 melanoma
DU-145 prostate = tested on: DU-145 prostate
NCI-H226 lung = tested on: NCI-H226 lung
RXF 393 renal = tested on: RXF 393 renal

Measured: TGI

CCOC(=O)C1(C(=O)OCC)C[C@H]2CON=C2[C@@H]1c1ccc(C(F)(F)F)cc1
64.9 µM: HOP-62 NSCLC
28.9 µM: IGROV1 ovarian
27.5 µM: UO-31 renal
96.6 µM: EKVX NSCLC
94.3 µM: T-47D breast
61.4 µM: OVCAR-4 ovarian
99.3 µM: A498 renal
34.4 µM: ACHN renal
61 µM: NCI-H522 lung
23.7 µM: CCRF-CEM leukemia
32.4 µM: LOX IMVI melanoma
87.4 µM: HCC-2998 colon
> 100 µM: all other assays above

Cc1cn2c(/C=C3/C(=O)Nc4ccccc43)c(-c3ccccc3)nc2s1
66.8 µM: SNB-75 CNS
55.4 µM: SNB-19 CNS
76.4 µM: SK-OV-3 ovarian
61.2 µM: UO-31 renal
41.7 µM: SF-539 CNS
42.4 µM: 786-0 renal
91 µM: HS 578T breast
51.2 µM: TK-10 renal
78.1 µM: SK-MEL-2 melanoma
57.7 µM: MDA-MB-231 breast
55.2 µM: RXF 393 renal
not listed: OVCAR-4 ovarian | NCI-H226 lung
> 100 µM: all other assays above

OC1(c2ccc(Cl)cc2)c2ccccc2C2=Nc3ccccc3CN21 (stereo not given)
> 75.4 µM: KM12 colon
25.8 µM: 786-0 renal
> 81.3 µM: IGROV1 ovarian
> 79.6 µM: SN12C renal
74.1 µM: HS 578T breast
> 87.7 µM: MCF7 breast
30.8 µM: HOP-62 NSCLC
> 71.9 µM: NCI-H226 lung
19 µM: HCT-116 colon
55.4 µM: RXF 393 renal
> 81.6 µM: EKVX NSCLC
28.6 µM: ACHN renal | A549 NSCLC
9.77 µM: OVCAR-3 ovarian
92 µM: MALME-3M melanoma
> 89.6 µM: SK-MEL-2 melanoma
> 67.6 µM: SNB-19 CNS
38.2 µM: OVCAR-8 ovarian
44 µM: SNB-75 CNS
> 84.8 µM: SR leukemia
33.8 µM: HT29 colon
> 75.5 µM: HL-60(TB) leukemia
67.2 µM: NCI-H522 lung
98.3 µM: SK-MEL-28 melanoma
98.8 µM: NCI/ADR-RES ovarian
> 72.9 µM: A498 renal
> 50.4 µM: SF-295 CNS
50.6 µM: OVCAR-4 ovarian
> 100 µM: all other assays above
